Consider 1 compound from article PMC6900016, “Synthesis of Indomorphan Pseudo‐Natural Product Inhibitors of Glucose Transporters GLUT‐1 and ‐3” (Angewandte Chemie (International Ed. in English), 2019).

Assay [1] relates to CLS439. Put plainly: cells. To be noted: 72 h growth; read-out: Cell growth inhibition IC50/µM. Set-up: Cell growth inhibition, sulforhodamine B total protein staining. Here is the method:
(§1) Cell panel profiling A panel of 94 cell lines was exposed to Glupin for 72 h to assess the influence on cell growth (Oncolead, Germany). Cell growth was determined using sulforhodamine B assay. Measurements were performed using a total protein staining protocol. Briefly, after treatement cells were fixed addition of 10% TCA (for adherent growing cells) or 50% TCA (for semi-adherent growing cells or cells growing in suspension). After an incubation at 4°C for 1 h, plates were washed twice with 400 μl of deionized water and dried. Cells were then stained with 100 μl of 0.04% wt/v sulforhodamine B. Plates were incubated at room temperature for at least 30 min and washed six times with 1% acetic acid to remove unbound stain. […] This effect was much stronger at a physiological glucose concentration (5 mM; Figure 5 b,c). […] IC50 values lower than 300 nM were obtained for more than 20 cell lines, whereas 24 cell lines were not affected by the compound, among them the peripheral blood mononuclear control cells (PBMCs). Sensitivity to Glupin was detected across various tissue types (Table S6).

The subject of assay [2] is MV411. Put plainly: cells. The following applies: Homo sapiens, MV4-11; 72 h growth; read-out: Cell growth inhibition IC50/µM. Details: Cell growth inhibition, sulforhodamine B total protein staining. As to the method: as §1
In assay [3] the test system is MDAMB436. Put plainly: cells. Details: Cell growth inhibition, sulforhodamine B total protein staining. To be noted: Homo sapiens, MDA-MB-436; 72 h growth; read-out: Cell growth inhibition IC50/µM. Here is the method:
as §1

The subject of assay [4] is TE671. Put plainly: cells. Set-up: Cell growth inhibition, sulforhodamine B total protein staining. To be noted: Homo sapiens, TE-671; 72 h growth; read-out: Cell growth inhibition IC50/µM. Here is the method: as §1
The subject of assay [5] is MDAMB231. Put plainly: cells. Details: Cell growth inhibition, sulforhodamine B total protein staining. The following applies: Homo sapiens, MDA-MB-231; 72 h growth; read-out: Cell growth inhibition IC50/µM. As to the method:
as §1

For assay [6], the system named is SF268. Put plainly: cells. Set-up: Cell growth inhibition, sulforhodamine B total protein staining. To be noted: Homo sapiens, SF-268; 72 h growth; read-out: Cell growth inhibition IC50/µM. Here is the method: as §1
Assay [7] has as its system MCF7. Put plainly: cells. Details: Cell growth inhibition, sulforhodamine B total protein staining. To be noted: Homo sapiens, MCF7; 72 h growth; read-out: Cell growth inhibition IC50/µM. As to the method:
as §1

Assay [8] has as its system MDAMB468. Put plainly: cells. Details: Cell growth inhibition, sulforhodamine B total protein staining. The following applies: Homo sapiens, MDA-MB-468; 72 h growth; read-out: Cell growth inhibition IC50/µM. Here is the method:
as §1

For assay [9], the system named is SKLMS1. Put plainly: cells. The following applies: Homo sapiens, SK-LMS-1; 72 h growth; read-out: Cell growth inhibition IC50/µM. Set-up: Cell growth inhibition, sulforhodamine B total protein staining. As to the method: as §1
Assay [10] deals with 5637. Put plainly: cells. Set-up: Cell growth inhibition, sulforhodamine B total protein staining. The following applies: 72 h growth; read-out: Cell growth inhibition IC50/µM. As to the method:
as §1

Assay [11] relates to SKMEL5. Put plainly: cells. Set-up: Cell growth inhibition, sulforhodamine B total protein staining. The following applies: Homo sapiens, SK-MEL-5; 72 h growth; read-out: Cell growth inhibition IC50/µM. Here is the method: as §1
Assay [12] concerns NCIH292. Put plainly: cells. Set-up: Cell growth inhibition, sulforhodamine B total protein staining. To be noted: Homo sapiens, NCI-H292; 72 h growth; read-out: Cell growth inhibition IC50/µM. As to the method: as §1
Assay [13] has as its target T1, GLUT-3 (Homo sapiens, UniProt P11169).
T1 construct: gene SLC2A3
Put plainly: CETSA/thermal proteome profiling in SW480 lysate (ΔTm […] °C by MS, […] °C by immunoblot, […]); 2DG uptake IC50 in DLD-1 GLUT1(-/-) cells; shift on GLUT-3 overexpression in CHO. Type of assay: cell-based. In general terms: In western blotting, separated proteins are transferred to a membrane and probed.

Assay [14] has as its system T2, CHO.
T2 construct: transiently transfected with plasmid
Put plainly: cells. To be noted: Cricetulus griseus, 0.5 h. Set-up: 2DG uptake in transfected CHO cells, resazurin/diaphorase fluorescence. As to the method:
Transient overexpression of GLUT-1-4 in CHO cells and 2DG assay[7] 1x10^6 CHO cells were seeded 10 cm cell culture plates. After overnight incubation, cells were transfected with the different using Lipofectamine 3000 according to the supplier's instructions. Briefly, DNA-lipid SUPPORTING INFORMATION 264 complexes (100 µg plasmid DNA, DNA:lipid ratio 1:2) were prepared in OptiMEM and then added to the cells. In the case of GLUT-4-transfected cells, Insulin (100 µg/mL) was added to the transfection medium. After incubation for 48 h cells were either reseeded (40,000 cell/well) in 96-well plates for monitoring glucose uptake or cells were directly lysed and protein expression was subsequently analysed by means of immunoblotting. In the case of GLUT-4 transfected cells, Insulin (100 µg/mL) was added to the culture medium medium. The 2DG assay was performed as described above (low throughput resazurin-based assay). In the case of GLUT-4 transfected cells, Insulin (100 µg/mL) was added to the buffer. Resazurin-based 2DG uptake assay (low throughput) The 2DG uptake assay was performed by the Yamamoto et al. procedure.[6] 40000 cells/well were seeded in black CellBIND 96-well plates with clear bottom (Corning) and allowed to attach overnight. Cells were washed three times with KRB buffer (20 mM Hepes, 5 mM KH2PO4, 1 mM MgCl2, 1 mM CaCl2, 136 mM NaCl, 4.7 mM KCl, pH 7.4) containing 0.1% BSA and then incubated with the compounds or vehicle control and 1 mM 2DG for 30 min as described earlier. After washing three times with KRB buffer, the plates were sealed with adhesive aluminum foil and cells were lysed with 60 µL 1% CHAPS in 0.06 M HCl. Subsequently, plates were heated using microplate heater for 15 min at 65°C. After cooling down to room temperature, 20 µL 0.5 M Tris were added to neutralize the acid, before 80 µL of detection enzyme mixture were added. The detection enzyme solution contained 25 µM resazurin sodium salt (Acros), 6 U/mL glucose-6-phosphate dehydrogenase (G8404; Sigma Aldrich), 0.2 U/mL diaphorase from Chlostridium kluyveri (D5540; Sigma Aldrich) and 0.1mM NADP+ (Applichem) in 0.125 mM Tris, pH 8.4 with 0.1% BSA. After incubation for 2 h at room temperature, fluorescence intensity was measured at ex/em 530/590 nm using a Tecan M200 plate reader. Data were normalized to the respective DMSO

T1 sequence (P11169 whole entry): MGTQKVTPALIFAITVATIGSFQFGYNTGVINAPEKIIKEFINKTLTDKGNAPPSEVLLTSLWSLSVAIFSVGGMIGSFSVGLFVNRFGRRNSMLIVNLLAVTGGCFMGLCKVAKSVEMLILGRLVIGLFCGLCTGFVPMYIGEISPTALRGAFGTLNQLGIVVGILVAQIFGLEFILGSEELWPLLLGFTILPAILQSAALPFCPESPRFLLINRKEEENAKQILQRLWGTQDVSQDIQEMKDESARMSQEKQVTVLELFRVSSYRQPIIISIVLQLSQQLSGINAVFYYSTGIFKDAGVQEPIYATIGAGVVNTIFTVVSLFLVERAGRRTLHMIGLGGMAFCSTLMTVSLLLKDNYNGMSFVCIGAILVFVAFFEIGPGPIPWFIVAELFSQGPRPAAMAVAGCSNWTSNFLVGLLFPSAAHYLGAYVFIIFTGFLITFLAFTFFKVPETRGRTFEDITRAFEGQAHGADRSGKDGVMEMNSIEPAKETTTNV

With `CCOC(=O)Cn1c2c(c3ccccc31)C[C@@H]1C[C@H]2C(OC)CN1C(=O)c1cccnc1SC` (single isomer, unassigned; (+)) [(+)-5a, Glupin], the IC50 in assay [1] is 0.24 µM; in [2] it was greater than 30 µM; in [3] it was 11.1 µM; in assay [4], 0.299 µM; in assay [5], 8.38 µM; in [6] it was 0.37 µM. The IC50 is greater than 30 µM in assay [7]; 4.32 µM in assay [8]; 0.699 µM in assay [9]; 0.114 µM in assay [10]; greater than 30 µM in [11]; greater than 30 µM in [12]. Moreover, the IC50 in assay [13] turned out to be 0.0114 ± 0.0016 µM; in assay [14] (pCMV-SPORT6-GLUT3), 0.068 ± 0.0072 µM; in assay [14] (pTCN-GLUT1), 0.162 ± 0.014 µM; in assay [14] (pTCN-GLUT2), 0.0197 ± 0.0024 µM; in assay [14] (pTCN-GLUT4) it was 0.0189 ± 0.0032 µM.
